# Laboratory results taken from patent US9663473B2 (Actelion Pharmaceuticals Ltd, priority 2013, dated 2017).
# Target: T1, recombinant human ALX receptor (Homo sapiens, UniProt P25090)
# T1 construct: expressed in transfected cells; host or cells: HEK293 (HEK293-hALXR-Gα16)
# T1 sequence (P25090 1-351): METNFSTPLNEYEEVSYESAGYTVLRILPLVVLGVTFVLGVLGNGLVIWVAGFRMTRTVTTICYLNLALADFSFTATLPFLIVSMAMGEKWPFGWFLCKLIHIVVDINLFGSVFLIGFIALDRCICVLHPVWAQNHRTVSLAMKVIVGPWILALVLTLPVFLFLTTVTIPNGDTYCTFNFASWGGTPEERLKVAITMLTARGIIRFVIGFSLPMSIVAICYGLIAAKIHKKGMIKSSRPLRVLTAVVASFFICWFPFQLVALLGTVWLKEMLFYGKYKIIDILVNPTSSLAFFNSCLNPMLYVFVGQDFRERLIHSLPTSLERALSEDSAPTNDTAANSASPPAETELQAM
# Experiment: Intracellular calcium measurements (FLIPR), ALX receptor agonistic activity
# Format: cell-based
# Conditions: HEK293-hALXR-Gα16 cells, Fluo-4 calcium signal, normalized to WKYMVm 10 nM
# Outline: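 HEK293 cells co-expressing human ALX receptor and Gα16 were loaded with 1 μM Fluo-4 AM for 60 min at 37° C., then exposed to serially diluted compounds on FLIPR Tetra. Peak fluorescence above baseline (ex 488/em 540 nm) was normalized to 10 nM WKYMVm as high control.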
row,SMILES,EC50 [nM]
1,"COc1ccc(C[C@@H](NC(=O)N2CC3CCC2CN3)c2nc3ccccc3[nH]2)cc1 (stereo partly drawn) [Example 122, N—((R)-1-(1H-Benzo[d]imidazol-2-yl)-2-(4-methoxyphenyl)ethyl)-2,5-diazabicyclo[2.2.2]octane-2-carboxamide]",59
2,"O=C(N[C@H](Cc1ccc(Cl)cc1)c1nc2ccccc2[nH]1)N[C@H]1CC[C@H](O)CC1 [Example 123, 1-((R)-1-(1H-Benzo[d]imidazol-2-yl)-2-(4-chlorophenyl)ethyl)-3-(trans-4-hydroxycyclohexyl)urea]",44
3,"COc1ccc(C[C@@H](NC(=O)N[C@H]2CC[C@H](O)CC2)c2nc3c(F)cccc3[nH]2)cc1 [Example 124, 1-((R)-1-(4-Fluoro-1H-benzo[d]imidazol-2-yl)-2-(4-methoxyphenyl)ethyl)-3-(trans-4-hydroxycyclohexyl)urea]",174
4,"COc1ccc(C[C@@H](NC(=O)N[C@@H]2CCNC2)c2nc3ccccc3[nH]2)cc1 [Example 125, 1-((R)-1-(1H-Benzo[d]imidazol-2-yl)-2-(4-methoxyphenyl)ethyl)-3-((R)-pyrrolidin-3-yl)urea]",82
5,"COc1ccc(C[C@@H](NC(=O)N[C@H]2CCNC2)c2nc3ccccc3[nH]2)cc1 [Example 126, 1-((R)-1-(1H-Benzo[d]imidazol-2-yl)-2-(4-methoxyphenyl)ethyl)-3-((S)-pyrrolidin-3-yl)urea]",601
6,"COc1ccc(C[C@@H](NC(=O)N2CCC3CNCC32)c2nc3ccccc3[nH]2)cc1 (stereo partly drawn) [Example 127, N—((R)-1-(1H-Benzo[d]imidazol-2-yl)-2-(4-methoxyphenyl)ethyl)hexahydropyrrolo[3,4-b]pyrrole-1(2H)-carboxamide]",246
7,"COc1ccc(C[C@@H](NC(=O)N2CCC3NCCC32)c2nc3ccccc3[nH]2)cc1 (stereo partly drawn) [Example 128, N—((R)-1-(1H-Benzo[d]imidazol-2-yl)-2-(4-methoxyphenyl)ethyl)hexahydropyrrolo[3,2-b]pyrrole-1(2H)-carboxamide]",308
8,"COc1ccc(C[C@@H](NC(=O)N2CC3CC2CN3)c2nc3ccccc3[nH]2)cc1 (stereo partly drawn) [Example 129, N—((R)-1-(1H-Benzo[d]imidazol-2-yl)-2-(4-methoxyphenyl)ethyl)-2,5-diazabicyclo[2.2.1]heptane-2-carboxamide]",279
9,"COc1ccc(C[C@@H](NC(=O)N2CCN(C(=O)OC(C)(C)C)CC2)c2nc3ccccc3[nH]2)cc1 [Example 130, (R)-tert-Butyl 4-((1-(1H-benzo[d]imidazol-2-yl)-2-(4-methoxyphenyl)ethyl)carbamoyl)piperazine-1-carboxylate]",1060
10,"COc1ccc(C[C@@H](NC(=O)N[C@@H]2CCCNC2)c2nc3ccccc3[nH]2)cc1 [Example 131, 1-((R)-1-(1H-Benzo[d]imidazol-2-yl)-2-(4-methoxyphenyl)ethyl)-3-((R)-piperidin-3-yl)urea]",15
11,"COc1ccc(C[C@@H](NC(=O)N[C@H]2CCCNC2)c2nc3ccccc3[nH]2)cc1 [Example 132, 1-((R)-1-(1H-Benzo[d]imidazol-2-yl)-2-(4-methoxyphenyl)ethyl)-3-((S)-piperidin-3-yl)urea]",23
12,"O=C(N[C@H](Cc1ccc(Br)cc1)c1nc2ccc(F)cc2[nH]1)N[C@H]1CC[C@H](O)CC1 [Example 133, 1-((R)-2-(4-Bromophenyl)-1-(6-fluoro-1H-benzo[d]imidazol-2-yl)ethyl)-3-(trans-4-hydroxycyclohexyl)urea]",3.4
13,"COc1ccc(C[C@@H](NC(=O)N2CCN(C)CC2)c2nc3ccccc3[nH]2)cc1 [Example 136, (R)—N-(1-(1H-Benzo[d]imidazol-2-yl)-2-(4-methoxyphenyl)ethyl)-4-methylpiperazine-1-carboxamide]",387
14,COc1ccc(C[C@@H](NC(=O)NCc2ccccc2OC)c2nc3ccccc3[nH]2)cc1 [Example 137],726
15,"COc1ccc(C[C@@H](NC(=O)NC2CCN(C(C)=O)CC2)c2nc3ccccc3[nH]2)cc1 [Example 138, (R)-1-(1-(1H-Benzo[d]imidazol-2-yl)-2-(4-methoxyphenyl)ethyl)-3-(1-acetylpiperidin-4-yl)urea]",789
16,"COC(=O)N1CCC(NC(=O)N[C@H](Cc2ccc(OC)cc2)c2nc3ccccc3[nH]2)CC1 [Example 139, (R)-Methyl 4-(3-(1-(1H-benzo[d]imidazol-2-yl)-2-(4-methoxyphenyl)ethyl)ureido)piperidine-1-carboxylate]",414
17,"COc1ccc(C[C@@H](NC(=O)N[C@@H]2CCCN(C(C)=O)C2)c2nc3ccccc3[nH]2)cc1 [Example 140, 1-((R)-1-(1H-Benzo[d]imidazol-2-yl)-2-(4-methoxyphenyl)ethyl)-3-((R)-1-acetylpiperidin-3-yl)urea]",62
18,"O=C(NC(Cc1ccc(OC(F)(F)F)cc1)c1nc2ccccc2[nH]1)NC1CN2CCC1CC2 (stereo not drawn) [Example 141, 1-(1-(1H-Benzo[d]imidazol-2-yl)-2-(4-(trifluoromethoxy)phenyl)ethyl)-3-(quinuclidin-3-yl)urea]",834
19,"COc1ccc(C[C@@H](NC(=O)N[C@@H]2CCN(C(C)=O)C2)c2nc3ccccc3[nH]2)cc1 [Example 142, 1-((R)-1-(1H-Benzo[d]imidazol-2-yl)-2-(4-methoxyphenyl)ethyl)-3-((R)-1-acetylpyrrolidin-3-yl)urea]",306
20,"COc1ccc(C[C@@H](NC(=O)NC2CCN(S(C)(=O)=O)CC2)c2nc3ccccc3[nH]2)cc1 [Example 143, (R)-1-(1-(1H-Benzo[d]imidazol-2-yl)-2-(4-methoxyphenyl)ethyl)-3-(1-(methylsulfonyl)piperidin-4-yl)urea]",108
21,"COc1ccc(C[C@@H](NC(=O)NCCN2CCN(C(=O)OC(C)(C)C)CC2)c2nc3ccccc3[nH]2)cc1 [Example 144, (R)-tert-Butyl 4-(2-(3-(1-(1H-benzo[d]imidazol-2-yl)-2-(4-methoxyphenyl)ethyl)ureido)ethyl)piperazine-1-carboxylate]",947
22,"COc1ccc(C[C@@H](NC(=O)NC2CN3CCC2CC3)c2nc3ccc(C#N)cc3[nH]2)cc1 (stereo partly drawn) [Example 154, 1-((R)-1-(6-Cyano-1H-benzo[d]imidazol-2-yl)-2-(4-methoxyphenyl)ethyl)-3-(quinuclidin-3-yl)urea]",6.8

# More lines, now with the values ahead:
row,EC50 [nM],SMILES
1,512,"COc1ccc(C[C@@H](NC(=O)NCC2CCN(C(=O)OC(C)(C)C)CC2)c2nc3ccccc3[nH]2)cc1 [Example 146, (R)-tert-Butyl 4-((3-(1-(1H-benzo[d]imidazol-2-yl)-2-(4-methoxyphenyl)ethyl)ureido)methyl)piperidine-1-carboxylate]"
2,493,"COc1ccc(C[C@@H](NC(=O)NCC2CCN(C)CC2)c2nc3ccccc3[nH]2)cc1 [Example 147, (R)-1-(1-(1H-Benzo[d]imidazol-2-yl)-2-(4-methoxyphenyl)ethyl)-3-((1-methylpiperidin-4-yl)methyl)urea]"
3,18,"COc1ccc(C[C@@H](NC(=O)N[C@H]2CC[C@H](O)CC2)c2nc3cc([N+](=O)[O-])ccc3[nH]2)cc1 [Example 148, 1-(trans-4-Hydroxycyclohexyl)-3-((R)-2-(4-methoxyphenyl)-1-(5-nitro-1H-benzo[d]imidazol-2-yl)ethyl)urea]"
4,168,"COc1ccc(C[C@@H](NC(=O)NCC2CCNCC2)c2nc3ccccc3[nH]2)cc1 [Example 149, (R)-1-(1-(1H-Benzo[d]imidazol-2-yl)-2-(4-methoxyphenyl)ethyl)-3-(piperidin-4-ylmethyl)urea]"
5,209,"COc1ccc(C[C@@H](NC(=O)NCCN2CCNCC2)c2nc3ccccc3[nH]2)cc1 [Example 150, (R)-1-(1-(1H-Benzo[d]imidazol-2-yl)-2-(4-methoxyphenyl)ethyl)-3-(2-(piperazin-1-yl)ethyl)urea]"
6,572,"COc1ccc(C[C@@H](NC(=O)NCCN2CCN(C)CC2)c2nc3ccccc3[nH]2)cc1 [Example 151, (R)-1-(1-(1H-Benzo[d]imidazol-2-yl)-2-(4-methoxyphenyl)ethyl)-3-(2-(4-methylpiperazin-1-yl)ethyl)urea]"
7,6.2,"COc1ccc(C[C@@H](NC(=O)N[C@H]2CC[C@H](O)CC2)c2nc3ccc(C#N)cc3[nH]2)cc1 [Example 152, 1-((R)-1-(6-Cyano-1H-benzo[d]imidazol-2-yl)-2-(4-methoxyphenyl)ethyl)-3-(trans-4-hydroxycyclohexyl)urea]"
8,8.7,"COc1ccc(C[C@@H](NC(=O)NC2CC(C)(C)NC(C)(C)C2)c2nc3ccc(C#N)cc3[nH]2)cc1 [Example 153, (R)-1-(1-(6-Cyano-1H-benzo[d]imidazol-2-yl)-2-(4-methoxyphenyl)ethyl)-3-(2,2,6,6-tetramethylpiperidin-4-yl)urea]"
9,489,"COc1ccc(C[C@@H](NC(=O)NCCC2CCN(C(=O)OC(C)(C)C)CC2)c2nc3ccccc3[nH]2)cc1 [Example 155, (R)-tert-Butyl 4-(2-(3-(1-(1H-benzo[d]imidazol-2-yl)-2-(4-methoxyphenyl)ethyl)ureido)ethyl)piperidine-1-carboxylate]"
10,94,"COc1ccc(C[C@@H](NC(=O)NCCC2CCNCC2)c2nc3ccccc3[nH]2)cc1 [Example 156, (R)-1-(1-(1H-Benzo[d]imidazol-2-yl)-2-(4-methoxyphenyl)ethyl)-3-(2-(piperidin-4-yl)ethyl)urea]"
11,187,"COc1ccc(C[C@@H](NC(=O)NC2CCN(S(C)(=O)=O)C2)c2nc3ccccc3[nH]2)cc1 (stereo partly drawn) [Example 157, 1-((R)-1-(1H-Benzo[d]imidazol-2-yl)-2-(4-methoxyphenyl)ethyl)-3-(1-(methylsulfonyl)pyrrolidin-3-yl)urea]"
